ChEMBL document CHEMBL5113408, “Design, synthesis and antitumour activity of novel 5(6)-amino-benzimidazolequinones containing a fused morpholine” (Eur J Med Chem, 2022)
pIC50: −log10 of the molar value. Activity calls are given as the source filed them. The calls are words filed in the database; no cut-off is given here.

Assays:
MGC-803 [1] = assay: Induction of cell cycle arrest in human MGC-803 cells assessed as accumulation of cells at G2/M phase at 4 uM incubated for 36 hrs by PI staining based flow cytometry analysis (reference value: 20.5%); type: functional
HGC-27 [2] = assay: Induction of cell cycle arrest in human HGC-27 cells assessed as decrease in p-cdc25c level at 1 to 4 uM by Western blot analysis; type: functional, cell-based; conditions: dose 1-4 µM
MGC-803 [3] = assay: Induction of cell cycle arrest in human MGC-803 cells assessed as accumulation of cells at S phase at 4 uM incubated for 36 hrs by PI staining based flow cytometry analysis (reference value: 20.5%); type: functional
MGC-803 [4] = assay: Induction of apoptosis in human MGC-803 cells incubated for 48 hrs by Annexin-V FITC staining based flow cytometry analysis; type: functional, cell-based; conditions: dose 1-4 µM, DDE = dose-dependent effect
HGC-27 [5] = assay: Inhibition of colony formation in human HGC-27 cells incubated for 24 hrs with fresh medium replacement for every two days measured for 11 days by crystal voilet staining based assay; type: functional, cell-based; conditions: dose 0.5-2 µM, time 11.0 day, DDE = dose-dependent effect
MGC-803 [6] = assay: Induction of apoptosis in human MGC-803 cells incubated for 48 hrs in presence of NAC by Annexin V-FITC and PI staining based flow cytometry analysis; type: functional
HGC-27 [7] = assay: Induction of cell cycle arrest in human HGC-27 cells assessed as accumulation of cells at G2/M phase at 4 uM incubated for 36 hrs by PI staining based flow cytometry analysis (reference value: 26.2%); type: functional
MCF7 = assay: Antiproliferative activity against human MCF7 cells assessed as inhibition of cell growth by SRB assay; type: functional, cell-based
MGC-803 [8] = assay: Induction of cell cycle arrest in human MGC-803 cells assessed as accumulation of cells at G2/M phase at 2 uM incubated for 36 hrs by PI staining based flow cytometry analysis (reference value: 20.5%); type: functional
HGC-27 [9] = assay: Antiproliferative activity against human HGC-27 cells assessed as inhibition of cell growth incubated for 24 to 72 hrs by SRB assay; type: functional, cell-based; conditions: dose 0.25-8 µM, time 24-72 hrs, DDE = dose-dependent effect
MGC-803 [10] = assay: Antitumor activity against human MGC-803 cells xenografted with BALB/c mouse assessed as vacuolated cytoplasm at 10 to 20 mg/kg, ip administered once every two days; type: functional, organism-based; conditions: dose 10-20 mg/kg
[11] = Toxicity in BALB/c mouse xenografted with human MGC-803 cells assessed as effect on body weight at 10 to 20 mg/kg, ip administered once every two days; type: organism-based; conditions: in vivo, dose 10-20 mg/kg
MGC-803 [12] = assay: Induction of DNA damage in human MGC-803 cells assessed as appearance of longer comet tail at 4 uM; type: functional, cell-based
HGC-27 [13] = assay: Induction of cell cycle arrest in human HGC-27 cells assessed as accumulation of cells at G1 phase at 1 uM incubated for 36 hrs by PI staining based flow cytometry analysis (reference value: 49.6%); type: functional
[14] = Toxicity in BALB/c mouse xenografted with human MGC-803 cells assessed as effect on spleen at 10 to 20 mg/kg, ip administered once every two days measured after 15 days by H and E staining based assay; type: organism-based; conditions: in vivo, 360 h, dose 10-20 mg/kg, time 15 day
HGC-27 [15] = assay: Induction of cell cycle arrest in human HGC-27 cells assessed as accumulation of cells at G1 phase at 2 uM incubated for 36 hrs by PI staining based flow cytometry analysis (reference value: 49.6%); type: functional
MGC-803 [16] = assay: Induction of DNA damage in human MGC-803 cells assessed as increase in gamma-H2AX generation incubated for 48 hrs by Western blot analysis; type: functional, cell-based; conditions: DDE = dose-dependent effect
HGC-27 [17] = assay: Activation of ROS/JNK signalling in human HGC-27 cells assessed as increase in p-JNK level at 1 to 4 uM by Western blot analysis; type: cell-based; conditions: filed as activator, dose 1-4 µM
HGC-27 [18] = assay: Induction of cell cycle arrest in human HGC-27 cells assessed as accumulation of cells at S phase at 1 uM incubated for 36 hrs by PI staining based flow cytometry analysis (reference value: 8.87%); type: functional

Structure (SMILES): Cc1ccc(NC2=CC(=O)c3nc4n(c3C2=O)[C@H]2OC[C@@H](O)[C@H]2OC4)cc1C
- Activity (MGC-803 [1]): 28.2%
- Activity (HGC-27 [2]): Active
- Activity (MGC-803 [3]): 34.1%
- Activity (MGC-803 [4]): Dde
- inhibition (HGC-27 [5]): Dde
- Activity (MGC-803 [6]): 9.29%
- Activity (HGC-27 [7]): 33.3%
- pIC50 (MCF7): 5.68
- Activity (MGC-803 [8]): 24%
- Activity (HGC-27 [9]): Dde
- Activity (MGC-803 [10]): Active
- Activity [11]: Non-Toxic
- Activity (MGC-803 [12]): Active
- Activity (HGC-27 [13]): 49.3%
- Activity [14]: Non-Toxic
- Activity (HGC-27 [15]): 33.5%
- Activity (MGC-803 [16]): Dde
- Activity (HGC-27 [17]): Active
- Activity (HGC-27 [18]): 8.8%
